Test results published in patent US7884067B2, “Peptides derived from cadherin and methods of use thereof” (Mount Sinai School of Medicine of New York University, priority 2001, dated 2011).

B1: N-Cad/CTF2: chicken cytoplasmic domain of N-cadherin (N-Cad/CTF2) inserted into vector pECE, expressed in L cells (protein)
chain: KRRDKERQAKQLLIDPEDDVRDNILKYDEEGGGEEDQDYDLSQLQQPDTVEPDAIKPVGIRRLDERPIHAEPQYPVRSAAPHPGDIGDFINEGLKAADNDPTAPPYDSLLVFDYEGSGSTAGSLSSLNSSSSGGEQDYDYLNDWGPRFKKLADMYGGGDD

Assays:
E-cadherin = E-cadherin processing in E-cadherin-transfected PS1+/+ fibroblasts (Western blot, C36); type: cell-based, mouse; details: L-685,458 0.5 μM, 6 hours, compared to non-treated controls
Experimental: Cell Cultures and transfections. Cells were grown in Dulbecco's Modified Eagle Medium (DMEM) plus 10% fetal bovine serum, penicillin and streptomycin in 5% CO2 at 37° C. Fibroblast cell lines derived either from wild-type (WT) (PS1+/+) or PS1 knock-out (PS1−/−) mice were stably transfected with human E-cadherin as described by Baki et al., (2001). A431 cells were from American Type Culture Collection. Stable transfectants of PS1 cDNA in HEK293 cells were prepared as described by Georgakopoulos et al., (1999). A431D cells stably transfected with wild-type or GGG759-761AAA mutant E-cadherin were provided by Dr. A. B. Reynolds.
Immunoprecipitations (IPs), immunoblotting, immunofluorescence and confocal microscopy. For WB analysis of cell extracts, cells were washed with PBS and then solubilized in RIPA buffer. For IPs cells were solubilized in Hepes buffer (25 mM Hepes [pH 7.4], 150 mM NaCl, 1× Complete protease inhibitor cocktail, Roche) containing 1% digitonin (IPs with I-R222 and PI-R222 antibodies) or 1% Triton X-100 (IPs with β-catenin and desmoglein antibodies). Following centrifugation at 17,000×g for 10 min, supernatants (1 mg protein) were pre-cleared with protein A- or protein G-agarose (Pierce) for 2 hours. […] IPs were washed with Hepes buffer containing either 1% digitonin or 1% Triton X-100 and analyzed by SDS-PAGE. […]

[1] = tested on: CRE-dependent transactivation; experiment: CRE-dependent transactivation in N2a cells; type: cell-based, mouse; set-up: dose or concentration left out as unconfirmed; details: 16 hours, vs DMSO, FIG. 10A
Experimental: Transactivation assays. CRE-dependent transactivation was measured in the absence or presence of overexpression of PKA (pFC-PKA, Stratagene) by cotransfection with CRE-luciferase reporter plasmid (pCRE-Luc, Stratagene) and pSV-β-galactosidase vector (Promega) to evaluate transfection efficiency. CHOP-mediated transactivation was measured by cotransfection with the Gal4-fusion trans-activator plasmids (pFA-CHOP and pFR-Luc, Stratagene). 30 hours after transfection, luciferase and β-galactosidase activities were determined following manufacturer's instructions using a TD-20/20 luminometer (Turner Designs) and a DU-64 spectrophotometer (Beckman). Values were normalized to β-galactosidase activity and protein concentration.
N2a cells co-transfected with plasmids pCRE-luc, pFC-PKA, and pSV-β-galactosidase were incubated for 16 hours with DMSO or with L-685,458 ([…]) and CRE-dependent transactivation was measured as described above. […] Total RNA isolated from N2a cells treated either with DMSO or with L-685,458, was analyzed by semiquantitative RT-PCR using specific primers for c-fos and gapdh. The graph in FIG. 10B represents the relative abundance of c-fos-specific PCR products following quantitation of the mRNA signals shown in the upper panel. […]

CBP/CREB complex = molecular target: T1, CBP/CREB complex (Mus musculus, UniProt P45481); experiment: Electrophoretic mobility shift assay, CREB probe; type: biochemical; details: nuclear extract from cells transfected with 0.2 μg and 0.5 μg pN-Cad/CTF2, FIG. 11C lanes 6-8
T1 construct: full length mouse CBP inserted into vector pRc/RSV; expressed in transfected cells; host or cells: L cells transfected with mouse CBP (pRc/RSV), without or with 0.2 or 0.5 µg pN-Cad/CTF2; nuclear extract
Experimental: Electrophoresis mobility shift assay (EMSA). Nuclear extract from CBP-transfected L cells were prepared using the extraction kit N-XTRACT (Sigma) according to manufacturer's instructions. Ten microgram of nuclear extract was used for EMSA performed according to manufacturer's instructions using biotinylated double-stranded oligonucleotide probes containing DNA-binding motifs for CREB or MEF-1 (Panomics). Probes are as follow: CREB, 5′-[…]-3′ (SEQ ID NO: 17); MEF-1,5′-[…]-3′ (SEQ ID NO: 18). Reaction products were separated on 6% polyacrylamide gels in cold TBE buffer (50 mM Tris-HCl, 45 mM Boric acid, 0.5 mM EDTA), transferred to nylon membranes (Immobilon-Ny+, Millipore) and bound probes were immobilized for 30 minutes at 85° C. and visualized by chemiluminescence using streptavidin-HRP conjugate. For antibody supershift analysis, nuclear extract was incubated for 3 hours at 4° C. with […] of 1 B6 antibody prior to probe addition. Where indicated, nuclear extract ([…]) was immunoprecipitated with A-22 antibody ([…]) and protein A-agarose in EBC buffer (50 mM Tris, pH 8, 120 mM NaCl, 0.5% NP40, 1× Complete protease inhibitor cocktail).

T1 sequence (P45481 whole entry, one chain of several): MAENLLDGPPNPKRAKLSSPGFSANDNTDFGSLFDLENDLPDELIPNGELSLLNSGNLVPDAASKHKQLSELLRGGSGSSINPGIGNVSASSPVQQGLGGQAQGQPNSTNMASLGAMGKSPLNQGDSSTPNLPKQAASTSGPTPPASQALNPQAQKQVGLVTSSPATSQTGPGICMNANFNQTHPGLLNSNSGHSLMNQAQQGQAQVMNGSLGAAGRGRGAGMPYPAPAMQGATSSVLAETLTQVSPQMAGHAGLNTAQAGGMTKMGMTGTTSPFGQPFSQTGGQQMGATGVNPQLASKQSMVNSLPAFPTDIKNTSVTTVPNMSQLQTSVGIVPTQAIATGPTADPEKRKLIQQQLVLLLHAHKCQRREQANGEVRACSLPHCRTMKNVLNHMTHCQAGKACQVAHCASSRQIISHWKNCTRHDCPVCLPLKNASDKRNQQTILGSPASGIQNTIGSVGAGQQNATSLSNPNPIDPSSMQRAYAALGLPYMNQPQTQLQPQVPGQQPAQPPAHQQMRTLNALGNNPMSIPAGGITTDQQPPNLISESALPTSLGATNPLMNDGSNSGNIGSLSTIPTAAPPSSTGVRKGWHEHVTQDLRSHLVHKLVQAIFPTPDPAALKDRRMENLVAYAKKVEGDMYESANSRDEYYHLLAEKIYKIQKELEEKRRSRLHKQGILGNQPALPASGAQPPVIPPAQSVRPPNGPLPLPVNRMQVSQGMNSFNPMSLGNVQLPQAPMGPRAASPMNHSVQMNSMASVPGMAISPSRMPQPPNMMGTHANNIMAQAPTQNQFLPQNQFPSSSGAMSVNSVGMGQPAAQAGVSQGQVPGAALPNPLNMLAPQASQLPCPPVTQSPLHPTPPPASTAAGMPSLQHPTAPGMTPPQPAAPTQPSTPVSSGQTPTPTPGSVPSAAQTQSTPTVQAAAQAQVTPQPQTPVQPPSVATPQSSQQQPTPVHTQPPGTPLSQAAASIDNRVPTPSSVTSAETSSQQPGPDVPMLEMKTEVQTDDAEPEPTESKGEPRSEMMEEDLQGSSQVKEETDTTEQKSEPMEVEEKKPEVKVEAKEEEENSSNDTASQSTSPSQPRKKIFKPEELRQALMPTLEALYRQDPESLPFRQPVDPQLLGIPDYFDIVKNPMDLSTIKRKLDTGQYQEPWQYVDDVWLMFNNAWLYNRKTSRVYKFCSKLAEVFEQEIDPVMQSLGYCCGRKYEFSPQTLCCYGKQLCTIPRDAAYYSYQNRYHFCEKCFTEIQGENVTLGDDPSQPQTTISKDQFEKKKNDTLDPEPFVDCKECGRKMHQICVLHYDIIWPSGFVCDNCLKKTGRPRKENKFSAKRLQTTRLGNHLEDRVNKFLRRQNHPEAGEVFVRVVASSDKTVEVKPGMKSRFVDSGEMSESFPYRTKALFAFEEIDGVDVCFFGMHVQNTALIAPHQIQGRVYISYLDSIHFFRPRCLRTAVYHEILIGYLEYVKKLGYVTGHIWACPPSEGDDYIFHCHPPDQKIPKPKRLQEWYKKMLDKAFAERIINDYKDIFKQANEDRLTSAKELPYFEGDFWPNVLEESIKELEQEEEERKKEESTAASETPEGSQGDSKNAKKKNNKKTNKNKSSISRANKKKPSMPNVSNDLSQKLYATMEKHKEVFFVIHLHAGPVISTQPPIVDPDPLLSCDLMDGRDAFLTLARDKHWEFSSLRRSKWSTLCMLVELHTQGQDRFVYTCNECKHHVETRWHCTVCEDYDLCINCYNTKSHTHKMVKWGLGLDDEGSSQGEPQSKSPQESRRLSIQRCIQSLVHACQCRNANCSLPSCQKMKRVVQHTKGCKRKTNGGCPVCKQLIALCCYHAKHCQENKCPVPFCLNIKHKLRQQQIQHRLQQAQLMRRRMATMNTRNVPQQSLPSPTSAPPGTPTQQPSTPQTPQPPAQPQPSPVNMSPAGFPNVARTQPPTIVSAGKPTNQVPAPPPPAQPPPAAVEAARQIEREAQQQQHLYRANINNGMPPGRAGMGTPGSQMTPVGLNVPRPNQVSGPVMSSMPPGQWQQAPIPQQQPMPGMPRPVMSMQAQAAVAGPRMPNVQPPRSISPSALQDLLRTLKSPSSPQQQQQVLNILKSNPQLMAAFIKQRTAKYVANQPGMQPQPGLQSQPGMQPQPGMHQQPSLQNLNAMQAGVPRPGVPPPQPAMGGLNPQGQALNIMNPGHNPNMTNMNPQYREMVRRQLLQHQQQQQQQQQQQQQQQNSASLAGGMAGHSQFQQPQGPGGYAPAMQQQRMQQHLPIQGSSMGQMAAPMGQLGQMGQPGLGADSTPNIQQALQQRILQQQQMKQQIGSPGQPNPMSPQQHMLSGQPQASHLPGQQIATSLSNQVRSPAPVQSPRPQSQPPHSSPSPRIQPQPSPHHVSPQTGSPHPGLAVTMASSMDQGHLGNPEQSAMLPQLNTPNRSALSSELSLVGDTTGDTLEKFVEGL

Molecule | cellular E-Cad/CTF1 (E-cadherin) | CRE-dependent transactivation [1] | formation of a CBP/CREB complex on CRE-containing DNA templates (CBP/CREB complex)
CC(C)C[C@H](NC(=O)[C@H](Cc1ccccc1)C[C@@H](O)[C@H](Cc1ccccc1)NC(=O)OC(C)(C)C)C(=O)N[C@@H](Cc1ccccc1)C(N)=O [L-685,458] | increased cellular E-Cad/CTF1 | increased | 
B1 |  |  | defective in their ability to promote formation of a CBP/CREB complex
